Test results reported in paper PMC11460631, “Inhibition of transient receptor potential vanilloid 3 channels by antimalarial hydroxychloroquine alleviates TRPV3-dependent dermatitis” (The Journal of Biological Chemistry, 2024).

Assays:
TRPV3 [1] = molecular target: T1, TRPV3 (Homo sapiens, UniProt Q8NET8); assay: Calcium imaging (Fluo-4/AM) of TRPV3-expressing HEK293T cells; assay type: cell-based
T1 construct: YFP or GFP; expressed in transfected cells; host or cells: HEK293T
T1 sequence (Q8NET8 1-790): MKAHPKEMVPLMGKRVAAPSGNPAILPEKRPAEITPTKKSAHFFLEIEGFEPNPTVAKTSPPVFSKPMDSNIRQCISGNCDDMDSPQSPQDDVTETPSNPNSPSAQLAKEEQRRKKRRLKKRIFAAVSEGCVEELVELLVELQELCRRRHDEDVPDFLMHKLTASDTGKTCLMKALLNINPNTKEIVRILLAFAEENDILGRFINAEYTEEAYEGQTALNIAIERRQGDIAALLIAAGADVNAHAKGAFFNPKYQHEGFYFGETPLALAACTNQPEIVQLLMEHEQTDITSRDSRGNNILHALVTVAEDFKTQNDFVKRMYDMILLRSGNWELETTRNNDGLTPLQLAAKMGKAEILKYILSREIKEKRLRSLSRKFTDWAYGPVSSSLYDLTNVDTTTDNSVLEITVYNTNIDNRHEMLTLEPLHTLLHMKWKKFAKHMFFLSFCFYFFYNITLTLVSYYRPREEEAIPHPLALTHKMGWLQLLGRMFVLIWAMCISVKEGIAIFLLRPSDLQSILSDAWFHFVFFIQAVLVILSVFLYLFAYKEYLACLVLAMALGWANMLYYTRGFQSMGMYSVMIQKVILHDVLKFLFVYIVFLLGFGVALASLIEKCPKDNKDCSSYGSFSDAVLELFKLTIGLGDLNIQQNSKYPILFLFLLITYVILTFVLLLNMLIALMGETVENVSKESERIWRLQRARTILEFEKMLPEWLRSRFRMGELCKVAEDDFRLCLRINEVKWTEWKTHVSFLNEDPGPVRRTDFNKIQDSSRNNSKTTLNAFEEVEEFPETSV
Description: (§1) HEK293T cells are cultured using Dulbecco's modified Eagle's medium containing 10% fetal bovine serum and 1% penicillin-streptomycin in a cell incubator with 5% CO2 at 37 °C. Plasmids of murine TRPV1, TRPV4, TRPM8, and human TRPV3, TRPA1 are labeled with YFP or GFP as indicators for subsequent electrophysiological recordings. Complementary DNA constructs of ion channels were transiently transfected with Lipofectamine 3000 (Invitrogen). And 12 to 18 h after transient transfection, electrophysiological recordings were performed.
Calcium imaging assays were performed as described previously ([37]). Transiently transfected HEK293 cells seeded on 25 mm coverslips were washed twice with an extracellular solution containing 140 mM NaCl, 5 mM KCl, 2 mM MgCl2, 2 mM CaCl2, 10 mM glucose, and 10 mM Hepes (pH 7.4), followed by incubation in 2 ml of extracellular solution supplemented with 2 μM Fluo-4/AM as a Molecular Probes at room temperature for 60 min. Fluorescence images of HEK293T cells were acquired with a Nikon Eclipse Ti2 microscope with an optiMOS charge-coupled device camera controlled by the Ocular Software ([…]; https://www.photometrics.com/products/ocular).

TRPV3 [2] = molecular target: T1, TRPV3; assay: Single-channel recordings of TRPV3 in the inside-out configuration; assay type: cell-based; conditions: −80 mV
Description: as §1
Patch-clamp recordings were carried out with a HEKA EPC10 amplifier controlled by PatchMaster software (HEKA; https://www.heka.com/products/products_main.html#soft_pm) ([36]). Patch pipettes were prepared from borosilicate glass and fire-polished to the resistance of 3 to 8 MΩ by P-97 puller for whole-cell recordings. For single-channel recordings, patch pipettes were fire-polished to a higher resistance of 6 to 10 MΩ. Both bath solution and pipette solution contained 130 mM NaCl, 10 mM glucose, 0.2 mM EDTA, and 3 mM Hepes and were adjusted to pH 7.2 to 7.4 with NaOH. Whole-cell recordings and single-channel recordings were performed at ± 80 mV. The current was sampled at 10 kHz and filtered at 2.9 kHz. All recordings were performed at room temperature (25 °C). A gravity-driven system (RSC-200, Bio-Logic) with freely rotated perfusion tubes was used for the perfusion of ligands. Bath and ligand solutions were delivered through separate tubes to minimize the mixing of solutions. Patch pipette holding cells were placed in front of the perfusion tube outlet for perfusion. Igor Pro versions 5.05 and 9.05 (WaveMetrics; https://www.wavemetrics.com/products/igorpro) were used to analyze the data.

calcium influx, area under the curve (AUC) (TRPV3 [1]; 100 μM HCQ mixed with 1 mM 2-APB): 8.65 ± 0.83
calcium influx, area under the curve (AUC) (TRPV3 [1]; 300 μM HCQ mixed with 1 mM 2-APB): 0.28 ± 0.05
TRPV3 channel open probability (Po) (TRPV3 [2]; 50 μM HCQ with 1 mM 2-APB): 0.50 ± 0.03
TRPV3 channel open probability (Po) (TRPV3 [2]; 100 μM HCQ with 1 mM 2-APB): 0.13 ± 0.04
single-channel conductance (TRPV3 [2]; HCQ with 1 mM 2-APB, HCQ concentration not stated in the sentence (50 and 100 μM tested)): 37.97 ± 2.96 pS
SMILES: CCN(CCO)CCCC(C)Nc1ccnc2cc(Cl)ccc12 (centres unmarked) [HCQ, hydroxychloroquine]
